Reference: US10702518B2, “TAF1 inhibitors for the therapy of cancer” (CeMM—Forschungszentrum für Molekulare Medizin GmbH, priority 2016, dated 2020)
Entries after “also recorded” stand apart in the source; their conditions may differ. Blank lines part the entries; values can stand above or below the compound they belong to.

Assays:
[1] = tested on: bromodomains of BRD4 (1), BRD4 (2), BRD9, CREBBP, EP300 and TAF1 (2); test: BromoELECT bromodomain panel; format: binding; settings: 10 μM
Experimental: (§1) . The assay was done in duplicate (mean±STD); (b) BromoKdELECT assay for CeMMEC1 against TAF1 (2), BRD9, CREBBP and EP300 bromodomains (11 dilutions, from 10 to 0.017 μM). (c) not used (d) KinomeScan profile for CeMMEC1 (10 μM). Bubbles indicate the percentage of inhibition of the binding of the analyzed kinase to an immobilized ligand. (e) BromoELECT assay for CeMMEC1 and analogs A1, A2, 05, 10, 13, 24, 25, 26, 27, 29, 33 and 39 (10 μM) against BRD4 (1), BRD4 (2), BRD9, CREBBP, EP300 and TAF1 (2). (f, g) Docking poses of analog 30 to TAF1 (green) and BRD4 (magenta). (h) Docking of compound 29 to TAF1, no suitable pose could be identified for BRD4. (i) BromoELECT assay for analog 29 (10 μM) against BRD4 (1), BRD9, CREBBP, EP300 and TAF1 (2).

REDS3 cells = test: RFP reporter expression in REDS3 cells (live cell imaging); format: cell-based, human; settings: for RFP expression in REDS3 cells: single agent
Experimental: Cells were seeded on clear flat bottom 96-well or 384-well plates (Corning) and treated with the indicated compounds for the specified conditions. Live cell imaging pictures were taken with the Operetta High Content Screening System (PerkinElmer), 20× objective and non-confocal mode.
Only RFP-positive nuclei were detected and counted.
The increase of RFP fluorescence, detected with the Operetta High Content Screening System (PerkinElmer), 20× objective and non-confocal mode, was used as read-out.
Briefly, the screening was divided in three parts called respectively 1) primary screening, 2) follow up and 3) validation. During the primary screening REDS3 cells were treated with 10 μM of every compound, and live cell imaging pictures were taken in order to assess their ability to induce RFP expression 24 hours later.

BRD4 (BD2) = biological target: T1, BRD4 (BD2) (Homo sapiens, UniProt O60885); test: AlphaLISA, second bromodomain of BRD4; format: binding; settings: 10 μM
T1 construct: AlphaLISA assays for the first (black columns, BD1) and the second (grey columns, BD2) bromodomains of BRD4
Excerpt: (§4) The Amplified Luminescent Proximity Homogenous Assay (AlphaLISA©) is the homogenous and chemiluminescence-based method, used to explore the direct interaction of the identified small molecules with BRD4 and therefore, measure the IC50 values of the direct BRD4 inhibitors.
(§5) Briefly, in this assay, the biotinylated histone peptide substrate is captured by streptavidin-coupled donor beads. The GST-tagged bromodomain is recognized and bound by an anti-GST antibody conjugated with an acceptor bead. In absence of an inhibitor, the bromodomain binds to histone peptide substrate. […] The event of a signal (alpha count) can only take place when the interaction partners are in proximity (<200 nm).
(§6) The AlphaLISA was performed for both bromodomains of BRD4 using the BRD4 (BD1) Inhibitor Screening Kit (BPS Bioscience) and BRD4 (BD2) Inhibitor Screening Kit (BPS Bioscience) following the manufacturer's protocol. For the GST full length BRD4 purified from BL21 cells, a mixture of acetylated substrates from the BD1 and BD2 Inhibitor Screening Kit reported above was used.
(§7) Compounds were tested at a final assay concentration of 10 μM in duplicates. […] Reaction was initiated by adding one of the two bromodomains (BD1 or BD2) or the GST full length BRD4. […]

TAF1 = biological target: T2, TAF1 (Homo sapiens, UniProt P21675); test: TAF1 binding assay (FRET/HTRF peptide displacement); settings: FRET analysis, data not shown
T2 construct: TAF1 second bromodomain (Uniprot P21675, residues 1501-1634); made in house; host or cells: E. coli BL21 (DE3)-R3-pRARE2 (stated for the His-tagged construct)
T2 sequence (P21675 1501-1634): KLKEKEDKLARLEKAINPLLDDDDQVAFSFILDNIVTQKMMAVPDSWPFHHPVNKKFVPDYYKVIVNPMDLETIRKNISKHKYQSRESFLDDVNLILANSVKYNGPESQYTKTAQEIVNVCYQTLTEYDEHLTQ
Experimental: TAF1 binding assays were conducted using the EPIgeneous™ Binding Domain kit B (Cisbio Bioassays) according to manufacturer's instructions. Binding was determined by the displacement of an acetylated biotin-peptide from a GST tagged TAF1 protein using HTRF with a Eu3+ conjugated GST antibody donor and streptavidin conjugated acceptor. Compounds were dispensed into assay plates, ProxiPlate-384 Plus (Perkin Elmer) using an Echo 525 Liquid Handler (Labcyte). Binding assays were conducted in a final volume of 20 μl with 5 nM TAF1-GST, 50 nM peptide (SGRGK (ac)GGK (ac)GLGK (ac)GGAK (ac)RHRK (biotin)-acid), 6.25 nM Streptavidin-XL665, 1:200 Anti-GST-Eu3+ cryptate and 0.1% DMSO. Assay reagents were dispensed into plates using a Multidrop combi (Thermo Scientific) and incubated at room temperature for 3 hours. Fluorescence was measured using a PHERAstar microplate reader (BMG) using the HTRF module with dual emission protocol (A=ex. 320 nm em. 665 nm, B=ex. 320 nm em. 620 nm). Raw data were processed to give an HTRF ratio (channel A/B*10000), which was used to generate IC50 curves.

CREBBP = CREBBP (Homo sapiens, UniProt Q92793); test: BromoScan / BromoELECT / BromoKdELECT, CREBBP; format: binding
CREBBP, sequence (Q92793 1085-1192 limits assumed): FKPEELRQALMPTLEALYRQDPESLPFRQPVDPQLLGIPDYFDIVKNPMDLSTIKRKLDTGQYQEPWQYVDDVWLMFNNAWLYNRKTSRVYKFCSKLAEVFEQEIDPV
Experimental: (§2) Bubbles indicate the percentage of inhibition of the binding of the analyzed bromodomains to an acetylated substrate. […] (g) BromoKdELECT assay for CeMMEC1 against TAF1 (2). […] (i) Docking of CeMMEC1 to the second bromodomain of TAF1. 3D model (top panel) and 2D ligand interaction diagram (bottom panel). Red dots in the 3D model indicate water molecules.
(§3) (c) not used (d) KinomeScan profile for CeMMEC1 (10 μM). Bubbles indicate the percentage of inhibition of the binding of the analyzed kinase to an immobilized ligand.

EP300 = biological target: T3, EP300 (Homo sapiens, UniProt Q09472); test: BromoScan / BromoKdELECT, EP300; format: binding
T3 sequence (Q09472 1049-1156 limits assumed): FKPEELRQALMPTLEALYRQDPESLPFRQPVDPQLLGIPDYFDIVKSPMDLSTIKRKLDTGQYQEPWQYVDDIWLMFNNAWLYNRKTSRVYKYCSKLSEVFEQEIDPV
Experimental: as §2, §3

[2] = tested on: c-MYC expression in WT-KBM7; test: c-MYC expression by RT-PCR in WT-KBM7; format: cell-based, human; settings: 1, 10 and 20 μM, 24 hours
Experimental: (c) Percentage of c-MYC expression in WT-KBM7 treated with the selected compounds, assessed by RT-PCR. 1, 10 and 20 μM of each compound were used to treat cells for 24 hours; DMSO was used as negative control and (S)-JQ1 as positive control. Three biological replicates were performed (mean±STD).
RNA extraction was performed with TRIzol Reagent (Life Technologies) according to the manufacturer's protocol and Reverse Transcription (RT) was performed using the High Capacity cDNA Reverse Transcription Kit (Applied Biosystems) following the standard protocol.
QPCR was performed using the Power SYBR Green Master mix (Invitrogen) as described in the manufacturer's protocol.
Real-time amplification results were normalized to the endogenous housekeeping genes Actin or GAPDH. The relative quantities were calculated using the comparative CT (Cycle Threshold) Method (ΔΔCT Method).

BRD9 = biological target: T4, BRD9 (Homo sapiens, UniProt Q9H8M2); test: BromoScan / BromoKdELECT, BRD9; format: binding
T4 sequence (Q9H8M2 136-240 limits assumed): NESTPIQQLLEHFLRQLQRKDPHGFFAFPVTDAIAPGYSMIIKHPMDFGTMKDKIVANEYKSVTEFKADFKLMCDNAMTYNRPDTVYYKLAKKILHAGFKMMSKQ
Experimental: as §2, §3

KBM7 cells = test: CellTiterGlo viability of control and TAF1 downregulated KBM7 cells; settings: shRNA TAF1 vs control, 96 hours
THP1 cells [3] = test: AnnexinV apoptosis assay in THP1 cells; settings: 72 hours
Experimental: (f) Quantification of AnnexinV positive cells from immunofluorescence images. […] At least 3 biological replicates were performed and more than 1,500 cells were quantified for each point (mean±STD).
Apoptotic cells were detected using the Annexin V-FITC Apoptosis detection kit (Abcam) according to the manufacturer's instruction. Apoptosis quantification was performed with the Harmony software (PerkinElmer) for nuclei and cytoplasm detection and analysis, adapted for the nucleus diameter range and cell shape of the specific cell line used.

H23 cells = test: Cell viability of H23 cells, combination with (S)-JQ1; format: cell-based
THP1 cells [4] = test: Cell cycle assay in THP1 cells; settings: 48 hours
Experimental: (e) Quantification of cells in S-phase by staining the nuclei with PI and analyzing DNA content by FACS. […] Three different biological replicates were performed and 30,000 cells were analysed each time (mean±STD).
For cell cycle analysis, cells were fixed with 70% ethanol for 24 hours, washed with PBS/0.1%-Tween and incubated with RNase for 20 minutes. Nuclei were stained with 5 μg/ml PI (propidium iodide, Sigma) for 10 minutes prior to FACS analysis (BD FACSCalibur Flow Cytometer).

TAF1 (2) = biological target: T5, TAF1 (2) (Homo sapiens, UniProt P21675); test: BromoScan / BromoELECT / BromoKdELECT, TAF1 (2); format: binding
T5 construct: the second bromodomain of TAF1 (TAF1 (2)); purchased DiscoverX Corporation (contract assay); host or cells: T7 phage in E. coli host derived from BL21
T5 sequence (P21675 1519-1628 limits assumed): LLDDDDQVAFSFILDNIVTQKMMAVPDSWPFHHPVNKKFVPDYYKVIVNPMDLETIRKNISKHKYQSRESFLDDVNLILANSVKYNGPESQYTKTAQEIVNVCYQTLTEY
Experimental: as §2, §3

[5] = tested on: 97 representative kinases; test: KinomeScan profile; format: binding; settings: 10 μM; 97 kinases
Experimental: as §1

BRD4 (BD1) = biological target: T6, BRD4 (BD1) (Homo sapiens, UniProt O60885); test: AlphaLISA, first bromodomain of BRD4; format: binding; settings: 10 μM
T6 construct: AlphaLISA assays for the first (black columns, BD1) and the second (grey columns, BD2) bromodomains of BRD4
Excerpt: as §4, §5, §6, §7

THP1 cells [6] = test: Cell viability of THP1 cells, combination with (S)-JQ1; format: cell-based, human
BRD4 = BRD4 (Homo sapiens, UniProt O60885); test: BromoScan profile, BRD4; format: binding; settings: 10 μM
Excerpt: as §2

Compound: Cn1cc(C(=O)Nc2ccc3c(c2)OCCO3)c(=O)n(C)c1=O [Compound 32]
binding to the tested bromodomain proteins [1]: bound neither of the tested bromodomain proteins
RFP expression in REDS3 cells in combination with (S)-JQ1 (REDS3 cells): The same effect was not achieved
RFP expression in REDS3 cells (REDS3 cells): nor did they induce RFP expression in REDS3 cells

binding constant, CREBBP (CREBBP; BromoKdELECT (FIG. 8b)): sub-micromolar binding constants
binding to CREBBP (CREBBP; BromoScan/BromoELECT, 10 μM): high affinity
binding constant, EP300 (EP300; BromoKdELECT (FIG. 8b)): sub-micromolar binding constants
binding to EP300 (EP300; BromoScan, 10 μM): high affinity
binding constant, BRD9 (BRD9; BromoKdELECT (FIG. 8b)): sub-micromolar binding constants
binding to BRD9 (BRD9; BromoScan, 10 μM): high affinity
binding constant, TAF1 (2) (TAF1 (2); BromoKdELECT (FIG. 8b)): sub-micromolar binding constants
Kd (TAF1 (2); BromoKdELECT assay (FIG. 4g)): 1400 nM
binding to TAF1 (2) (TAF1 (2); BromoScan/BromoELECT, 10 μM): high affinity
binding to BRD4 (BRD4): only bound BRD4 very weakly
Compound: Cn1cc(C(=O)Nc2ccc3c(c2)OCCO3)c2ccccc2c1=O [CeMMEC1]
binding to the second bromodomain of BRD4 (BRD4 (BD2)): neither able to bind the first nor the second bromodomain of BRD4
displacement of tetra-acetylated H4 peptide from TAF1 binding site (TAF1): displaced a tetra-acetylated H4 peptide with good efficacy
c-MYC expression [2]: capable of reducing the expression of this oncogene in a dose-dependent manner
cell viability with TAF1 downregulation (KBM7 cells): impaired cell viability in TAF1 downregulated cells
apoptosis (AnnexinV staining) (THP1 cells [3]): induced apoptosis
cell viability, combination with (S)-JQ1 (H23 cells): more efficiently impairing cell viability than the individual treatments
synergy with (S)-JQ1 (Bliss independence test) (H23 cells): confirmed the synergism
number of cells in S-phase (THP1 cells [4]): clear and dose-dependent decrease of the number of cells in S-phase
inhibition of kinases [5]: ≤ 60%
binding to the first bromodomain of BRD4 (BRD4 (BD1)): neither able to bind the first nor the second bromodomain of BRD4
cell viability, combination with (S)-JQ1 (THP1 cells [6]): more efficiently impairing cell viability than the individual treatments
synergy with (S)-JQ1 (Bliss independence test) (THP1 cells [6]): confirmed the synergism
RFP expression in REDS3 cells in combination with (S)-JQ1 (REDS3 cells): further boosted RFP expression beyond the increase in single treatments
RFP expression in REDS3 cells (REDS3 cells): expressed RFP detected by live cell imaging in a dose-dependent manner; also recorded: comparable induction of RFP expression in REDS3 cells

Compound: Cn1cc(C(=O)Nc2ccc3c(c2)OCCO3)c(=O)[nH]c1=O [Compound 35]
binding to the tested bromodomain proteins [1]: bound neither of the tested bromodomain proteins
RFP expression in REDS3 cells in combination with (S)-JQ1 (REDS3 cells): The same effect was not achieved
RFP expression in REDS3 cells (REDS3 cells): nor did they induce RFP expression in REDS3 cells
